# Assay results as given in ChEMBL document CHEMBL1201862, “PubChem BioAssay data set” (2004).
# Active and inactive are the calls of the source. How the calls were made is not given here.
# Target: T1, Exodeoxyribonuclease V (Escherichia coli (strain K12), UniProt P04993+P07648+P08394)
# T1 sequence (P04993 whole entry): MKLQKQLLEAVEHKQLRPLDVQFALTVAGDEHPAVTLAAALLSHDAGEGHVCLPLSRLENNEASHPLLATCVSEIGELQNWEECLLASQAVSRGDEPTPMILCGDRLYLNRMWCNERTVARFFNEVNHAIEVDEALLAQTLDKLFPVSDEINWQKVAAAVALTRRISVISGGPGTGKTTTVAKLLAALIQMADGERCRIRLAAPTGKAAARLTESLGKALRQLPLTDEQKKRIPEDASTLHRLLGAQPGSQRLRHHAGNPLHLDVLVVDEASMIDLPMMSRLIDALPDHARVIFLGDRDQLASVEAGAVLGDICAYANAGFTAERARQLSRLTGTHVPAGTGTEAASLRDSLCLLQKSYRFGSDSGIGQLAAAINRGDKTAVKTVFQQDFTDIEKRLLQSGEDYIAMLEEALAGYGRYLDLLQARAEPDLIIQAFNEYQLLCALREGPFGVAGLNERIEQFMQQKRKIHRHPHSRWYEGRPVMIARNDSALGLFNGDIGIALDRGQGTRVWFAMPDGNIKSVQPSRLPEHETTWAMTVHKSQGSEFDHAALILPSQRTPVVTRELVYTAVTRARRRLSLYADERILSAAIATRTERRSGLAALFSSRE
# T1 sequence (P07648 whole entry): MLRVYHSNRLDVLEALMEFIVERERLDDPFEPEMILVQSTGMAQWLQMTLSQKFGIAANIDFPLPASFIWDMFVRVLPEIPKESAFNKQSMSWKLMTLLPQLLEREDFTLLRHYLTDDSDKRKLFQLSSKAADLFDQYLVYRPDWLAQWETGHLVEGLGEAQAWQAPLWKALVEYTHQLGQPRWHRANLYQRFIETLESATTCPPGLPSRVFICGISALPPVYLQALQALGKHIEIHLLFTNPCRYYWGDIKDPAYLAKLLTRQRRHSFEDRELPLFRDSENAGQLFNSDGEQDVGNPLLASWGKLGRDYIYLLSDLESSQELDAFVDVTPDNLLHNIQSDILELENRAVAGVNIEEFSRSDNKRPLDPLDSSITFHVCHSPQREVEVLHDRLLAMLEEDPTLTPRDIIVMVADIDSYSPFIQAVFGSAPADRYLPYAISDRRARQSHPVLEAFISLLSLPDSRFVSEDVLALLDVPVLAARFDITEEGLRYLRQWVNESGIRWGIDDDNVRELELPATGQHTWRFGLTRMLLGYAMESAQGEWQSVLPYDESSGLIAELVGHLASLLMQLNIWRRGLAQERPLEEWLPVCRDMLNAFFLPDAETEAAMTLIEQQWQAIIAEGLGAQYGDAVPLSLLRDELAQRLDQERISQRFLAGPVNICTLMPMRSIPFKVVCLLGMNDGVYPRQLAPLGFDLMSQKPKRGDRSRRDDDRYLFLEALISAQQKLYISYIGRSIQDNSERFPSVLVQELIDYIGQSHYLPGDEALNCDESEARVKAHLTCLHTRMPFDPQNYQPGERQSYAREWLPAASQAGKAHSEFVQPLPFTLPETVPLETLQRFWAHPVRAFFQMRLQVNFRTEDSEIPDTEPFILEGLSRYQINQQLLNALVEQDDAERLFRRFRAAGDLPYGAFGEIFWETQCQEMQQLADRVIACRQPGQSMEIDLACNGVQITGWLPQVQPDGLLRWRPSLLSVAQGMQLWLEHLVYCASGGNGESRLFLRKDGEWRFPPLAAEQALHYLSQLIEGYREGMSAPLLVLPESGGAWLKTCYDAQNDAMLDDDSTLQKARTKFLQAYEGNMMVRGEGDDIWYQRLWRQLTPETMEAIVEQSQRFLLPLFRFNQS
# T1 sequence (P08394 whole entry): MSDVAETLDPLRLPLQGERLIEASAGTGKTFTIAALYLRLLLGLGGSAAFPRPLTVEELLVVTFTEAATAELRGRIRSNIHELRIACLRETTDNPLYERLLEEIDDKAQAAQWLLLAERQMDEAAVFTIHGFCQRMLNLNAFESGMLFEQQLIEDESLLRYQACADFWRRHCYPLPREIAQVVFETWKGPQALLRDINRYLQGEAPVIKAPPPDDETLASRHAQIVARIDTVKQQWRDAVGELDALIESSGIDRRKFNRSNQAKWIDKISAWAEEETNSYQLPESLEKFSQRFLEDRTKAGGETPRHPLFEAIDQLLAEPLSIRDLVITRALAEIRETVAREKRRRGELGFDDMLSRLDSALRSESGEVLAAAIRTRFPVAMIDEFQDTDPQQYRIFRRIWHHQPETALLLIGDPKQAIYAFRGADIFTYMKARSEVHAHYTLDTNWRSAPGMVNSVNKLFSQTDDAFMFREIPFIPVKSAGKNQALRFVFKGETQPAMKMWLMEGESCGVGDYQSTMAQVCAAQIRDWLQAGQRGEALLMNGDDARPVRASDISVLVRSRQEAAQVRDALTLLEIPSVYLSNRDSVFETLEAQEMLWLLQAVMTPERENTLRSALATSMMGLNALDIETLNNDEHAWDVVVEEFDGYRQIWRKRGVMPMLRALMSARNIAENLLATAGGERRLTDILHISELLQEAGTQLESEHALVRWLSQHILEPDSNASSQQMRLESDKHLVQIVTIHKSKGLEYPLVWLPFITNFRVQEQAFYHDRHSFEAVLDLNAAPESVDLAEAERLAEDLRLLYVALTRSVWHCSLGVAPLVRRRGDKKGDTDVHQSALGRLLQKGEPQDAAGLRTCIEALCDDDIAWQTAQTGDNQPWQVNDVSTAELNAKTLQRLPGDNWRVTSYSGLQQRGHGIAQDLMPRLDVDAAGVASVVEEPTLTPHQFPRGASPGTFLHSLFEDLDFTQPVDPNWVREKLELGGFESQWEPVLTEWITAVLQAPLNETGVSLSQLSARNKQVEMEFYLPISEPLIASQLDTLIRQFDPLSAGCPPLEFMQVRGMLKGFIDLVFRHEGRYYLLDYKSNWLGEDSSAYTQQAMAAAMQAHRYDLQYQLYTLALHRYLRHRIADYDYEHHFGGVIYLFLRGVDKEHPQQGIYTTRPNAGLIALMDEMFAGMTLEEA
# Test: RecBCD inhibition via phage-restricted bacterial growth – absorbance, V66 E. coli, mutant T4 phage, counter-screen for AddAB inhibitor project, dose response (AID 492957)
# Format: functional, cell-based, Escherichia coli str. K-12 substr. MG1655
smiles,measurement,value
COc1cc(-c2nnc(SCc3cc(=O)oc4cc(O)c(O)cc34)o2)cc(OC)c1OC,IC50,> 119 µM (inactive)
